What was measured:
[1] = Selectivity index, ratio of CC50 for human HG23 cells to EC50 for Norovirus; assay type: toxicity, cell-based; conditions: read-out: Selectivity Index
[2] = Cytotoxicity against african green monkey Vero cells; assay type: cell-based; conditions: chlorocebus sabaeus
Vaccinia virus = assay: Antiviral activity against Vaccinia virus infected in HFF cells assessed as inhibition of viral-induced cytopathicity; assay type: functional, organism-based, Orthopoxvirus vaccinia
Norovirus = assay: Antiviral activity against Norovirus infected in HG23 cells assessed as inhibition of viral-induced cytopathicity; assay type: functional, cell-based
[3] = Selectivity index, ratio of CC50 for human HFF cells to EC50 for Vaccinia virus; assay type: toxicity, cell-based; conditions: read-out: Selectivity Index
[4] = Selectivity index, ratio of CC50 for human HFF cells to EC90 for human cytomegalovirus; assay type: toxicity, cell-based; conditions: read-out: Selectivity Index
[5] = Selectivity index, ratio of CC50 for human HG23 cells to EC90 for Norovirus; assay type: toxicity, cell-based; conditions: read-out: Selectivity Index
[6] = Inhibition of rabbit erythrocyte S-adenosylhomocysteine hydrolase; parameters: species or system Oryctolagus cuniculus
[7] = Selectivity index, ratio of CC50 for human HFF cells to EC50 for human cytomegalovirus; assay type: toxicity, cell-based; conditions: read-out: Selectivity Index
[8] = Cytotoxicity against human HepG2.2.15 cells; assay type: cell-based, HepG2 2.2.15
[9] = Selectivity index, ratio of CC50 for human HepG2.2.15 cells to EC90 for Hepatitis B virus; assay type: toxicity; conditions: read-out: Selectivity Index
Human betaherpesvirus 5 = assay: Antiviral activity against human cytomegalovirus infected in HFF cells assessed as inhibition of viral-induced cytopathicity; assay type: functional, organism-based; conditions: Human betaherpesvirus 5, HFF
[10] = Cytotoxicity against human HFF cells; assay type: cell-based
Hepatitis B virus = assay: Antiviral activity against Hepatitis B virus infected in HepG2.2.15 cells assessed as inhibition of viral-induced cytopathicity; assay type: functional, organism-based, HepG2 2.2.15
[11] = Selectivity index, ratio of CC50 for african green monkey Vero cells to EC50 for Ebola virus Zaire virus; assay type: toxicity, cell-based; conditions: read-out: Selectivity Index
Measles morbillivirus = assay: Antiviral activity against Measles virus infected in african green monkey Vero cells assessed as inhibition of viral-induced cytopathicity; assay type: functional, organism-based
[12] = Cytotoxicity against human HG23 cells; assay type: cell-based
[13] = Selectivity index, ratio of CC50 for african green monkey Vero cells to EC50 for Measles virus; assay type: toxicity, cell-based; conditions: read-out: Selectivity Index
Dengue virus = assay: Antiviral activity against Dengue virus infected in african green monkey Vero cells assessed as inhibition of viral-induced cytopathicity; assay type: functional, organism-based
Ebolavirus = assay: Antiviral activity against Ebolavirus Zaire infected in african green monkey Vero cells assessed as inhibition of viral-induced cytopathicity; assay type: functional, cell-based; conditions: Orthoebolavirus
[14] = Selectivity index, ratio of CC50 for human HFF cells to EC90 for Vaccinia virus; assay type: toxicity, cell-based; conditions: read-out: Selectivity Index
[15] = Selectivity index, ratio of CC50 for african green monkey Vero cells to EC50 for Dengue virus; assay type: toxicity, cell-based; conditions: read-out: Selectivity Index
[16] = Selectivity index, ratio of CC50 for human HepG2.2.15 cells to EC50 for Hepatitis B virus; assay type: toxicity; conditions: read-out: Selectivity Index

Nc1ncnc2c1ncn2C1=C[C@H](CO)[C@@H](O)[C@H]1O
selectivity ratio [1]: > 128 | CC50 [2]: 1.3 µM | EC90 (Vaccinia virus; Orthopoxvirus vaccinia, HFF): > 300 µM | EC50 (Vaccinia virus; Orthopoxvirus vaccinia, HFF, read-out: EC50): 10.1 µM | EC50 (Norovirus): 0.784 µM | selectivity ratio [3]: > 30 | selectivity ratio [4]: < 4 | selectivity ratio [5]: > 11 | IC50 [6]: 0.0009 µM | selectivity ratio [7]: 448 | CC50 [8]: > 100 µM | selectivity ratio [9]: > 3 | EC50 (Human betaherpesvirus 5): 0.11 µM | EC90 (Human betaherpesvirus 5): > 10 µM | CC50 [10]: > 49.3 µM | EC90 (Hepatitis B virus; Hepatitis B virus, HepG2 2.2.15): 35 µM | EC50 (Hepatitis B virus; Hepatitis B virus, HepG2 2.2.15, read-out: EC50): 7.2 µM | selectivity ratio [11]: 3.5 | EC50 (Measles morbillivirus): < 0.38 µM | CC50 [12]: > 100 µM | selectivity ratio [13]: > 3.5 | EC50 (Dengue virus): 1.1 µM | EC50 (Ebolavirus): 0.38 µM | selectivity ratio [14]: 1 | selectivity ratio [15]: 17 | selectivity ratio [16]: > 14

Nc1ncnc2c1ncn2[C@@H]1C=C(CO)[C@@H](O)[C@H]1O [NEOPLANOCIN A]
IC50 [6]: 0.0009 µM

Nc1ncnc2c1ncn2C1=C[C@@H](CO)[C@H](O)[C@@H]1O
CC50 [2]: 11.4 µM | EC50 (Vaccinia virus; hff): Not Active | EC50 (Norovirus): 11 µM | EC90 (Norovirus): 89 µM | EC50 (Human betaherpesvirus 5): 3.7 µM | EC90 (Human betaherpesvirus 5): 6.86 µM | EC50 (Hepatitis B virus; hepg2 2.2.15): Not Active | EC50 (Measles morbillivirus): 0.72 µM | CC50 [12]: > 300 µM | EC50 (Dengue virus): 1.3 µM | EC50 (Ebolavirus): 0.76 µM
